These results are taken from patent US5332733A, “Heterocyclically substituted piperazinoakylbenzoxazine and piperazinoalkylbenzothiazine compounds, processes for preparing them, and medicaments containing them” (Kali-Chemie Pharma GmbH, priority 1990, dated 1994).

The subject of this test is PAF-induced aggregation of rabbit blood platelets. Nature of the test: Anti-PAF activity in vitro, PAF-induced platelet aggregation. Type of test: cell-based, rabbit (New Zealand hybrids). Conditions: Oryctolagus cuniculus, test substance 10^-5 mole/l, pH 7.4. From the text: 4. Determination of Anti-PAF Activity In Vitro
PAF (=Platelet Activating Factor) is a phospholipid mediator which has many effects. Activation of platelet aggregation induces protracted broncho-contraction and hyper-reactivity of the air paths.
In this test the effect of the test substances on platelet aggregation induced by adding PAF to a suspension of platelets obtained from rabbit blood is investigated using the method described by Mikashima et al. (Jap. J. Pharmacol. 44 (1987) 387-391).
A suspension of platelets obtained from rabbit blood containing 4×10^9 platelets/ml in a modified Tyrode buffer solution (=Tyrode solution with 1.3 mM/l CaCl2 and 2.5 g/l gelatine added) adjusted to pH 7.4 was used. Tyrode solution is an aqueous solution containing 136.9 mmoles NaCl, 2.68 mmoles KCl, 2.31 mmoles CaCl2, 1.0 mmole MgCl2, 11.9 mmoles NaHCO3, 1.45 mmoles NaH2 PO4 and 5.55 mmoles glucose per liter. The platelets were obtained from 10 ml blood samples from each of three rabbits (New Zealand hybrids, body weight 3-4 kg). For this the blood samples were treated with ethylenediamine tetraacetic acid and washed according to the method of Artley et al. (Brit. J. Hematol. 19 (1970), 7-17). A platelet-rich plasma was then initially separated by centrifuging (20 minutes at 400×g). The blood platelets were separated from the plasma by recentrifuging for 15 minutes at 1,400×g. The platelets remaining as sediment after centrifuging were resuspended in a Tyrode buffer solution (but without calcium). 0.4 mmole of lysine acetylsalicylate was then added, and after 15 minutes the platelets were sedimented again. The sediment was resuspended in the aforementioned modified Tyrode buffer solution, and the number of platelets in the resulting suspension was adjusted to the desired content.
A 40×10^-9 molar PAF solution was used as a reagent. This solution was made from a 1.8×10^-3 molar stock solution in chloroform. For this purpose a 10 μl sample of the stock solution was evaporated to dryness and redissolved in 180 μl of the modified Tyrode solution to which 0.25% of lipid-free bovine serum albumin had been added. From this 10^-5 molar working solutions were then prepared and stored frozen. Samples of these solutions were appropriately diluted for the tests.
To carry out the test 50 μl of the platelet suspension and 10 μl of a 40×10^-5 molar solution of the compound being investigated were added with stirring (1,000 rpm) to 330 μl of the modified Tyrode buffer solution in an aggregation tube provided with a small magnetic stirrer. This corresponds to a final test substance concentration of 10^-5 mole/l. After 90 seconds preincubation time, 10 μl of the PAF preparation were added. The aggregation occurring in the aggregation tubes was measured over 4-5 minutes with the aid of a computerized aggregometer.
The aggregation which occurred in test tubes containing only platelet suspension was evaluated as 0%, whereas the aggregation which occurred in test tubes containing platelet suspension and PAF preparation was evaluated as 100%. The aggregation which still occurred during the inhibition of the PAF induced platelet aggregation due to the addition of the test substances was measured, and the resulting aggregation inhibition was calculated therefrom in %.
Usually inhibition stands for the percentage by which the read-out fell short of the control. Low values mean little suppression, high ones strong suppression. The compound `Cc1ccnc(N2CCN(CCCC3Sc4ccccc4NC3=O)CC2)c1` (stereo not drawn) [Example 8] yielded an inhibition at 10 µM of 48%. In the case of `Cc1ccnc(N2CCN(CCCC3Oc4ccccc4NC3=O)CC2)c1` (stereo not drawn) [Example 9], the inhibition at 10 µM came to 51%.

`Cc1ccnc(N2CCN(CCCC3Sc4ccccc4NC3=S)CC2)c1` (stereo not drawn) [Example 11] showed an inhibition at 10 µM of 96%.
